As usually defined, the IC50 is the concentration that inhibits the measured activity by half. For orientation: Ki means a measure of affinity in units of concentration, obtained from inhibition or displacement.

These results are taken from article PMC9909315, “SY-707, an ALK/FAK/IGF1R inhibitor, suppresses growth and metastasis of breast cancer cells” (Acta Biochimica et Biophysica Sinica, 2022).

For assay [1], the system named is phosphorylation of IGF1R. Put plainly: Western blot of IGF1R phosphorylation in T47D cells after IGF1. The class given is cell-based. The note with it: 1 h treatment, then 100 ng/mL IGF1 for 10 min, dose-dependent. The procedure: Equal amounts of cell lysates were loaded onto 10% SDS-PAGE gel and separated by electrophoresis. Separated proteins were then electro-transferred onto polyvinylidene fluoride (PVDF) membranes (Millipore, Bedford, USA). After being blocked with Tris-buffered saline containing 0.1% Tween-20 (TBST) and 5% bovine serum albumin (BSA), the membranes were incubated with primary antibodies at room temperature for 2 hours or at 4°C, then washed with TBST, followed by treatment with horseradish peroxidase (HRP)-conjugated goat anti-rabbit IgG secondary antibody at room temperature for another 1 h. The targeted protein bands were visualized using an enhanced chemiluminescence (ECL) plus system (Thermo Fisher Scientific). […]
Figure4 Inhibitory effects of SY-707 on the phosphorylation of FAK(A,B) Concentration-dependent inhibition of SY-707 on phosphorylation of FAK in T47D (A) and MCF-7 (B) cells. […] Cell lysates were analyzed by western blot analysis using specific antibodies against p-FAK, p-Pyk2, p-AKT and p-ERK respectively. […] Cell lysates were analyzed by western blot analysis using specific antibodies against p-IGF1R, p-STAT3, p-AKT and p-ERK respectively.
Background: Immunoblotting shows a protein as a band on a membrane.

Assay [2] relates to solid cancer cells. The assay can be described thus: Cell proliferation assay, summary over the cell line series. In kind it is cell-based. The note with it: 72 h, read-out: IC50 values (summary over the solid cancer cell lines). The procedure: MCF-7, T47D, MDA-MB-231, MIA Paca-2, PANC-1, SW620, HT-29, U87MG, and A549 cell lines were purchased from the Cell Bank of Chinese Academy of Science (Shanghai, China). Cells were cultured in DMEM or RPMI-1640 (Gibco, BRL, USA) supplemented with 10% FBS (HyClone, Logan, USA) and 50 IU penicillin/streptomycin in a humidified atmosphere with 5% CO 2 at 37°C. The effects of SY-707 on cell proliferation were measured using CellTiter-Glo ® or CellTiter-Blue ® Cell Viability Assay kits (Promega, Beijing, China). In brief, cells were seeded in 96-well plates at low destiny with 195 μL of medium per well. The stock solutions of compounds were 3-fold serially diluted with DMSO from 10 mM to 0.3 nM, and 4 μL of solution at each concentration was mixed with 96 μL of serum free medium, then 5 μL of the resulted solution was added to each well. […] The luminescence signals were measured using EnVision ® multilabel plate reader (PerkinElmer), and the fluorescent signals were examined using FlexStation 3 (Molecular Devices, Sunnyvale, USA), and the IC 50 values were calculated using Prism ® software (Version 5.0) and presented as the average of three independent experiments performed in duplicate.

Assay [3] has as its system 4T1 breast cancer metastasis to the lung. The assay can be described thus: Metastasis analysis in vivo (lung nodules, 4T1 model). The note with it: 4T1, treatment alone: SY-707 100 mg/kg/day PO; paclitaxel 10 or 20 mg/kg/week IV; 20 days; not statistically different. Further details: species or system nude mice.
Experimental: Metastasis was detected in mouse lungs after the mice were sacrificed at the last dosing day. The lungs of each mouse were excised immediately and fixed with 4% paraformaldehyde for 24 h, then the lungs were photographed (three photographs per section per mouse) and the metastatic nodules in the lungs were manually counted and the data was analyzed for compound evaluation.
Mice were inoculated with 4T1 cells in PBS at right and left flanks expect the normal control group ( Figure 6A), SY-707 with or without paclitaxel was administered for 20 days when tumor volumes reached 150–300 mm ^3. The mice were sacrificed on the last day of drug administration, then the lungs were collected and metastatic nodules were counted manually for the evaluation of metastasis of 4T1 breast cancer.
The normal group (A) and the vehicle group which treatment with 20% SBE (B) were control. Mouse lungs were taken at the last day of treatment and fixed with 4% paraformaldehyde for 24 h, then the lungs were photographed and the metastatic nodules were counted manually for further analysis. *P<0.05, **P<0.01.
In assay [4] the target is ALK (Homo sapiens, UniProt Q9UM73). Put plainly: Enzymatic kinetic analysis at various ATP concentrations. The class given is biochemical. The procedure: (§1) SY-707 ( Figure 1A) was originally developed as an ALK inhibitor. […] To evaluate the in vitro enzymatic potency and selectivity of SY-707, a kinase panel screening on 96 kinases was performed to determine the inhibitory activities of SY-707 at a concentration of 1 mM. […] Then, enzymatic kinetic analysis of ALK and FAK was performed to explore the mechanisms of inhibition effect of SY-707. Activities of ALK or FAK were estimated at various concentrations of ATP in the presence or absence of SY-707.
Chain of ALK (Q9UM73 19-1620): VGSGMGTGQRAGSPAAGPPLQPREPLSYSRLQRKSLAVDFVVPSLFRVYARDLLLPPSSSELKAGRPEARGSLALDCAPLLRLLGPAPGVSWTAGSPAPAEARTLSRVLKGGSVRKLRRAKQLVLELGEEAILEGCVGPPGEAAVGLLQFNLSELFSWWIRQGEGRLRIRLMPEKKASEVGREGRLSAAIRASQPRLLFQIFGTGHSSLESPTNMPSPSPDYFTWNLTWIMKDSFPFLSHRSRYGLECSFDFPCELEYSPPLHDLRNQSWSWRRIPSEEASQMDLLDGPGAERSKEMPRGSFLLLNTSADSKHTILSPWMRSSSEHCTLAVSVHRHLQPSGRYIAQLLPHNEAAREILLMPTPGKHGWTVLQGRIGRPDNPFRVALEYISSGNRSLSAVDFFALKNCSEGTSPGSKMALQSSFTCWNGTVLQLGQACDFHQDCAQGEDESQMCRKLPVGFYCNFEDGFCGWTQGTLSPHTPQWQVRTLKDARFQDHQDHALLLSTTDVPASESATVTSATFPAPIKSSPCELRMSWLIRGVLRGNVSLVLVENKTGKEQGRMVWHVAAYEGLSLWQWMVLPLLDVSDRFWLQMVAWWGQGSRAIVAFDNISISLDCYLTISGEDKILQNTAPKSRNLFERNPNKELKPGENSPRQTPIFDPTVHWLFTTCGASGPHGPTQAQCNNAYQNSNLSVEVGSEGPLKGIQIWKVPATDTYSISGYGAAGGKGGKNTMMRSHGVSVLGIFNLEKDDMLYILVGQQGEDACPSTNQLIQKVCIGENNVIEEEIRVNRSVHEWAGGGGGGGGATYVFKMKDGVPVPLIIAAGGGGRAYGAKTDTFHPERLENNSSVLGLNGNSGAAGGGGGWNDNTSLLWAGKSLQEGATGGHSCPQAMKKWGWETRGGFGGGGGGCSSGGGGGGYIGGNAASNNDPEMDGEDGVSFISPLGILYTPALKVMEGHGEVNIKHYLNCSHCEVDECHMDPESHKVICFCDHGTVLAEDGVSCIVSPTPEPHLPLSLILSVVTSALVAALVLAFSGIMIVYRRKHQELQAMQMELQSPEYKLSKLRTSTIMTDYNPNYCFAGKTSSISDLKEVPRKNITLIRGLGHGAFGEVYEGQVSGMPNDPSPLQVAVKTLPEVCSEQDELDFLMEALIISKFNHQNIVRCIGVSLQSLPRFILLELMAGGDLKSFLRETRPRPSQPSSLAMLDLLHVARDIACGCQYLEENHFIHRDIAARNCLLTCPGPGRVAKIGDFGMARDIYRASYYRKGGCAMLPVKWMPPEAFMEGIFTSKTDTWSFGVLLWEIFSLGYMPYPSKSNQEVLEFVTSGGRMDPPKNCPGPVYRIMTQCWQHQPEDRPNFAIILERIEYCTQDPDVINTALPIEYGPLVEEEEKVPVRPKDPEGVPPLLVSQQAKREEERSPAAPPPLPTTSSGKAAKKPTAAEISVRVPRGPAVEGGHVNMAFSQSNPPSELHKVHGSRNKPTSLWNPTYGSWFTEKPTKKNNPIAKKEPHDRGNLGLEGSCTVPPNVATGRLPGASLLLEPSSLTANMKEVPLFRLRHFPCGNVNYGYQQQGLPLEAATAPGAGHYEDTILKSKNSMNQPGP
(§2) (C) ALK enzyme activities were evaluated at various concentrations of ATP (0–50 μM) in the presence of different concentrations of SY-707. (D) FAK enzyme activities were evaluated at various concentrations of ATP (0–333 μM) in the presence of different concentrations of SY-707.

Assay [5] deals with FAK (Homo sapiens, UniProt Q05397). The description is as above. The class given is biochemical. The procedure: as §1, §2
Chain of FAK (Q05397 whole entry): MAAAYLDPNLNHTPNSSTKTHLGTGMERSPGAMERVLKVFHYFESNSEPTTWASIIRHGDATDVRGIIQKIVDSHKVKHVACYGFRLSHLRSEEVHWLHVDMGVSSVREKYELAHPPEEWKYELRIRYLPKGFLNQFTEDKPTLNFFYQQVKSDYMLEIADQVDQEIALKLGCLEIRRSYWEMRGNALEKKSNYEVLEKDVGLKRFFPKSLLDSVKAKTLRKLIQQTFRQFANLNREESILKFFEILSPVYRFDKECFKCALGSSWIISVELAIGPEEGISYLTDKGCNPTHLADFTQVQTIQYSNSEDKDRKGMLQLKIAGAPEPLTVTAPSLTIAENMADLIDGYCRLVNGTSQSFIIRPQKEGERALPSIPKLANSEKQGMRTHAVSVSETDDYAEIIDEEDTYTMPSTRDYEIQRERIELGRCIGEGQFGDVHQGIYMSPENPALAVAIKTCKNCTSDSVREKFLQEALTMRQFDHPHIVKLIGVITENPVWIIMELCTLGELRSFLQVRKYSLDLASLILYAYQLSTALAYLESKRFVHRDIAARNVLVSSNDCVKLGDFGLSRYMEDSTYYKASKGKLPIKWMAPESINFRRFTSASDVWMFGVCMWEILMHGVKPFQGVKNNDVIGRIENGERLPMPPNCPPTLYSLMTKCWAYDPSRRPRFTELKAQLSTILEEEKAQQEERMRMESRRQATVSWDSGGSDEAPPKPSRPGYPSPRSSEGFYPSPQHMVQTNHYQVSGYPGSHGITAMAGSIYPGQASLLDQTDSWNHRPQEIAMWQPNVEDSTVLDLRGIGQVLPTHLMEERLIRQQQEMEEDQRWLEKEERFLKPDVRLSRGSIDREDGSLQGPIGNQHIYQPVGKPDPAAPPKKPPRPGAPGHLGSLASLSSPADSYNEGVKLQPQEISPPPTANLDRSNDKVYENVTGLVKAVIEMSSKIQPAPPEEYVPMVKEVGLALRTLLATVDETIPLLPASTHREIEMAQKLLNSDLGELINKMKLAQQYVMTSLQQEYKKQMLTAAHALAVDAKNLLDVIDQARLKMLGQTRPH
Assay [6] has as its system T47D cells. Put plainly: Would healing (migration) assay. The note with it: 24 h, vs control. The class given is cell-based. The procedure:
(§3) Totally, 5×10 ^5 cells were plated into each well of 6-well plates, and cultured to 70%–80% confluence, then the cell monolayer was gently and slowly scratched with a new 1-mL pipette tip across the center of the well. After scratching, the wells were gently washed with PBS twice to remove the detached cells, and replenished with fresh medium containing indicated concentration of compounds. The treated cells were allowed to grow for additional 24 h, and images were capturedunder a microscope. The migration distance were calculated and analyzed to evaluate the effects of compounds.

For assay [7], the system named is MCF-7 cells. The assay can be described thus: Would healing (migration) assay. The note with it: MCF-7, 24 h, vs control. The class given is cell-based. The procedure:
as §3

Regarding `COc1cc(N2CCC(N3CCN(C)CC3)CC2)ccc1Nc1nc2c(c(Nc3ccccc3S(=O)(=O)NC(C)C)n1)CCN2` [SY-707, N-isopropyl-2-((2-((2-methoxy-4-(4-(4-methylpiperazin-1-yl)piperidin-1-yl)phenyl)amino)-6,7-dihydro-5H-pyrrolo[2,3-d]pyrimidin-4-yl)amino)benzenesulfonamide], the “phosphorylation of IGF1R” value in assay [1] is reported as “block the phosphorylation”. Further, the concentration for half-maximal inhibition (IC50) in assay [2] was 500 to 10000 nM. Further, the “number of metastatic nodules in the lungs vs vehicle group” value in assay [3] was “reduced the number of metastatic nodules”. Also, the “mode of inhibition of ALK kinase” value in assay [4] (Lineweaver-Burk plots) is “ATP-competitive inhibitor”. Also, the “Ki', ALK enzyme-ATP complex” value in assay [4] (enzyme-ATP complex) was found to be 19.2 nM. Moreover, the inhibition constant (Ki) in assay [4] (free enzyme, read-out: dissociation constant (Ki), free ALK enzyme) was 0.9 nM; in assay [5] (free enzyme, read-out: dissociation constant (Ki), free FAK enzyme) it was 0.56 nM. Besides, the “mode of inhibition of FAK kinase” value in assay [5] (double-reciprocal plots) is “ATP-competitive inhibitory behavior”. For the same molecule, the “Ki', FAK enzyme-ATP complex” value in assay [5] (enzyme-ATP complex) was 16.1 nM. For the same molecule, the migration distance result in assay [6] and in assay [7] was “significantly decreased” throughout.
